The text below walks through data of ChEMBL document CHEMBL1201862, “PubChem BioAssay data set” (2004).

Among the test systems are SF-295; HOP-92; UO-31; DU-145; NCI-H522; HT-29; SNB-75; NCI/ADR-RES; HCT-15; SK-MEL-2; SF-539; NCI-H23; SN12C; UACC-62; RPMI-8226; NCI-H460; Hs-578T; HCT-116; MDA-MB-435; SR.
Assay in all cases: inhibition of tumour cell growth, NCI panel, 48 h

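Cells were grown in 96-well plates and exposed to each compound for 48 hours at five concentrations; endpoints were interpolated linearly between bracketing concentrations, or set to the highest concentration if not reached. Abbreviation: GI50, concentration required for 50% inhibition of growth.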 Active and inactive are the calls of the source. Cut-off read from the data, not from the text of the source: active = GI50 up to about 1.1 µM and inactive = higher.

For `O=c1cc(-c2ccccc2)[nH]c2cc(F)c(F)cc12`, the GI50 in the test with SF-295 was 1.21 µM (inactive); in the test on HOP-92, 0.789 µM (active); with UO-31 it was 0.805 µM (active); in the test on DU-145, 0.472 µM (active); in the test on NCI-H522, 0.385 µM (active); in the test with HT-29, 0.998 µM (active). Besides, the GI50 in the test with SNB-75 is 0.274 µM (active); in the test with NCI/ADR-RES it was 0.425 µM (active); in the test with HCT-15, 0.472 µM; in the test with SK-MEL-2 it was 3.01 µM (inactive); in the test on SF-539 it was 0.342 µM (active); with NCI-H23, 0.653 µM (active). Moreover, the GI50 in the test on SN12C is 1.97 µM (inactive); in the test with UACC-62 it was 0.322 µM (active); in the test on RPMI-8226 it was 0.309 µM (active); in the test with NCI-H460 it was 0.565 µM (active); in the test with Hs-578T, 0.423 µM (active); with HCT-116, 0.417 µM (active). In addition, the GI50 with MDA-MB-435 is 0.1 µM (active); in the test on SR it was 0.189 µM (active).
For `Clc1nc(Nc2nc3ccccc3[nH]2)nc(Cl)c1Cc1ccccc1`, the GI50 was > 100 µM (inactive) in the test with SF-295; 23 µM (inactive) with HOP-92; > 100 µM (inactive) with UO-31; > 100 µM (inactive) in the test on DU-145; 37 µM (inactive) in the test with NCI-H522; 54.1 µM (inactive) in the test with HT-29. The GI50 was 17.9 µM (inactive) with SNB-75; > 100 µM (inactive) in the test with NCI/ADR-RES; 40.2 µM in the test on HCT-15; > 100 µM (inactive) in the test with SK-MEL-2; 31.2 µM (inactive) in the test on SF-539; > 100 µM (inactive) in the test with NCI-H23. Besides, the GI50 was 59.4 µM (inactive) in the test with SN12C; 72.4 µM (inactive) in the test on UACC-62; > 100 µM (inactive) in the test with RPMI-8226; 89.1 µM (inactive) in the test with NCI-H460; 32.4 µM (inactive) in the test with Hs-578T; > 100 µM (inactive) in the test with HCT-116. Moreover, the GI50 in the test with MDA-MB-435 and with SR was > 100 µM (inactive) each time.
For `O=C1C=CC(O)C2C1CC13SSC4(CC5C(=O)C=CC(O)C5N4C1=O)C(=O)N23` (stereo not given), the GI50 with SF-295 was 1.09 µM (active); in the test with HOP-92, 0.0966 µM (active); in the test with UO-31, 0.272 µM (active); in the test on DU-145, 0.354 µM (active); in the test on NCI-H522, 0.0453 µM (active); with HT-29, 0.0426 µM (active). Further, the GI50 is 1.11 µM (active) in the test with SNB-75; 0.0545 µM (active) with NCI/ADR-RES; 0.14 µM in the test with HCT-15; 0.796 µM (active) with SK-MEL-2; 0.151 µM (active) in the test on SF-539; 0.106 µM (active) in the test with NCI-H23. Also, the GI50 in the test on SN12C is 0.0601 µM (active); in the test on UACC-62 it was 0.208 µM (active); with RPMI-8226, < 0.01 µM (active); with NCI-H460, 0.681 µM (active); in the test on Hs-578T, 0.5 µM (active); with HCT-116, < 0.0151 µM (active). Further, the GI50 in the test on MDA-MB-435 is 0.164 µM (active); in the test on SR it was < 0.01 µM (active).
Take `CCN1CCC(O)(c2ccc(Oc3ccccc3)cc2)C(C(=O)c2ccc(Oc3ccccc3)cc2)C1` (stereo not given): the GI50 is 14.2 µM (inactive) in the test on SF-295; 8.87 µM (inactive) in the test on HOP-92; 7.94 µM (inactive) with UO-31; 14.3 µM (inactive) in the test with DU-145; 19.6 µM (inactive) in the test with NCI-H522; 6.98 µM (inactive) in the test on HT-29. The GI50 with SNB-75 was 14.5 µM (inactive); with NCI/ADR-RES, 16.2 µM (inactive); in the test on HCT-15 it was 12.2 µM; in the test on SK-MEL-2, 15.1 µM (inactive); in the test with SF-539 it was 8.45 µM (inactive); in the test with NCI-H23, 13.4 µM (inactive). The GI50 is 15.3 µM (inactive) in the test with SN12C; 13.2 µM (inactive) in the test with UACC-62; 2.46 µM (inactive) in the test with RPMI-8226; 3.85 µM (inactive) with NCI-H460; 23.7 µM (inactive) in the test on Hs-578T; 9.27 µM (inactive) in the test on HCT-116. Also, the GI50 in the test with MDA-MB-435 is 12.9 µM (inactive); in the test with SR it was 5.74 µM (inactive).
`Cc1nc2ccc(Br)cc2c(=O)n1-c1nnc(C(C)(C)C)s1`: the GI50 in the test on SF-295 was > 10 µM (inactive); in the test on HOP-92, > 10 µM (inactive); in the test with UO-31, 2 µM (inactive); with DU-145 it was > 10 µM (inactive); in the test with NCI-H522 it was > 10 µM (inactive); in the test with HT-29, > 10 µM (inactive). Besides, the GI50 was > 10 µM (inactive) with SNB-75; > 10 µM (inactive) with NCI/ADR-RES; greater than 10 µM with HCT-15; > 10 µM (inactive) in the test on SK-MEL-2; > 10 µM (inactive) with SF-539; > 10 µM (inactive) in the test on NCI-H23. For the same compound, the GI50 is > 10 µM (inactive) in the test on SN12C; > 10 µM (inactive) in the test on UACC-62; > 10 µM (inactive) with RPMI-8226; > 10 µM (inactive) in the test with NCI-H460; 7.46 µM (inactive) with Hs-578T; > 10 µM (inactive) with HCT-116. The GI50 with MDA-MB-435 and with SR was > 10 µM (inactive) in each case.
In the case of `Cc1ccc(S(=O)(=O)NN=C2C(C)CC(C(C)(C)C)CC2C)cc1` (stereo not given), the GI50 in the test with SF-295 is 18.1 µM (inactive); in the test on HOP-92, 15.5 µM (inactive); with UO-31, 21 µM (inactive); with DU-145, 19.7 µM (inactive); in the test on NCI-H522, 18.6 µM (inactive); in the test with HT-29, 18.5 µM (inactive). The GI50 in the test with SNB-75 is 20.4 µM (inactive); with NCI/ADR-RES, 31.6 µM (inactive); with HCT-15 it was 18.2 µM; in the test with SK-MEL-2 it was 16.2 µM (inactive); in the test on SF-539, 95.1 µM (inactive); with NCI-H23, 24.4 µM (inactive). The GI50 in the test with SN12C was 18.4 µM (inactive); in the test with UACC-62, 32.3 µM (inactive); with RPMI-8226, 23.2 µM (inactive); in the test on NCI-H460 it was 18.8 µM (inactive); in the test on Hs-578T it was 37.2 µM (inactive); in the test with HCT-116 it was 17.5 µM (inactive). Besides, the GI50 with MDA-MB-435 is 20 µM (inactive); in the test on SR, 26.8 µM (inactive).
As to `Cc1ccc2c(c1)-c1c(C#N)c(N)nc(-c3ccc(Cl)cc3)c1CCS2(=O)=O`, the GI50 was 4.21 µM (inactive) in the test with SF-295; 44.5 µM (inactive) in the test with HOP-92; 5.74 µM (inactive) in the test on UO-31; 17.2 µM (inactive) in the test with DU-145; 2.14 µM (inactive) with NCI-H522; 3.61 µM (inactive) in the test on HT-29. Further, the GI50 in the test with SNB-75 was 3.21 µM (inactive); in the test on NCI/ADR-RES, 4.48 µM (inactive); in the test on HCT-15, 4.6 µM; with SK-MEL-2, 8.67 µM (inactive); in the test on SF-539, 3.77 µM (inactive); in the test with NCI-H23, 7.23 µM (inactive). For the same compound, the GI50 was 10.9 µM (inactive) with SN12C; 4.37 µM (inactive) in the test on UACC-62; 3.66 µM (inactive) with RPMI-8226; 3.85 µM (inactive) in the test on NCI-H460; 6.15 µM (inactive) with Hs-578T; 4.45 µM (inactive) in the test on HCT-116. For the same compound, the GI50 in the test on MDA-MB-435 was 2.52 µM (inactive); in the test on SR it was 1.87 µM (inactive).
In the case of `COc1cccc2c1C(=O)c1c(O)c3c(c(O)c1C2=O)C[C@@](O)(/C(C)=N/NC(=O)c1ccc(Cl)c(Cl)c1)C[C@@H]3OC1CC(N)C(O)C(C)O1` (stereo not given in full), the GI50 with SF-295 is 0.078 µM (active); in the test on HOP-92, 0.424 µM (active); in the test on UO-31, 1.08 µM (active); with DU-145, 0.251 µM (active); in the test on NCI-H522, 0.223 µM (active); in the test on HT-29, 0.071 µM (active). The GI50 in the test on SNB-75 is 0.0448 µM (active); in the test on NCI/ADR-RES, 0.532 µM (active); with HCT-15 it was 0.219 µM; in the test on SK-MEL-2, 0.718 µM (active); with SF-539, 0.183 µM (active); in the test with NCI-H23, 0.0592 µM (active). The GI50 in the test on SN12C was 0.101 µM (active); in the test on UACC-62, 0.11 µM (active); with RPMI-8226 it was 0.0269 µM (active); with NCI-H460, 0.067 µM (active); with Hs-578T, 0.528 µM (active); in the test with HCT-116, 0.0391 µM (active). Also, the GI50 is 0.27 µM (active) in the test with MDA-MB-435 and < 0.01 µM (active) in the test with SR.
With `Cc1cccc(/C=N/NC(=S)Nc2ccc(Cl)cc2)n1`, the GI50 in the test on SF-295 is 2.02 µM (inactive); in the test with HOP-92, 3 µM (inactive); in the test with UO-31 it was 1.87 µM (inactive); in the test with DU-145, 3.31 µM (inactive); in the test with NCI-H522, 0.177 µM (active); in the test with HT-29, 1.03 µM (active). Besides, the GI50 in the test on SNB-75 is 0.741 µM (active); in the test with NCI/ADR-RES, 0.527 µM (active); in the test with HCT-15, 0.519 µM; in the test on SK-MEL-2, 1.35 µM (inactive); in the test with SF-539 it was 2.52 µM (inactive); in the test on NCI-H23, 4.38 µM (inactive). The GI50 in the test with SN12C is 3.4 µM (inactive); in the test with UACC-62 it was 0.643 µM (active); in the test with RPMI-8226, 1.14 µM (inactive); in the test with NCI-H460, 0.635 µM (active); with Hs-578T, 2.18 µM (inactive); in the test on HCT-116, 1.47 µM (inactive). Besides, the GI50 in the test with MDA-MB-435 is 0.205 µM (active); in the test with SR, 0.778 µM (active).
As to `CCOC(=O)C(N)CSC(=O)NC` (stereo not given), the GI50 in the test with SF-295 is 258 µM (inactive); in the test on HOP-92 it was 98.4 µM (inactive); in the test with UO-31, 259 µM (inactive); with DU-145, 268 µM (inactive); in the test with NCI-H522 it was 102 µM (inactive); with HT-29, 78.7 µM (inactive). Further, the GI50 in the test with SNB-75 was 243 µM (inactive); with NCI/ADR-RES, 89.9 µM (inactive); in the test with HCT-15, 63 µM; in the test on SK-MEL-2, 63.2 µM (inactive); in the test with SF-539 it was > 83.6 µM (inactive); with NCI-H23 it was 112 µM (inactive). Further, the GI50 with SN12C was 71.6 µM (inactive); with UACC-62, 81.8 µM (inactive); in the test on RPMI-8226, 20.1 µM (inactive); in the test on NCI-H460 it was 92 µM (inactive); in the test on Hs-578T, 204 µM (inactive); in the test with HCT-116, > 89.7 µM (inactive). The GI50 with MDA-MB-435 was 45 µM (inactive); in the test on SR it was 45.1 µM (inactive).
